Source: patent US12624022B2, “Heterocyclic immunomodulators as PDL1 checkpoint inhibitor” (Janssen Sciences Ireland Unlimited Company, priority 2019, dated 2026)

Tests used:
[1] = across the 27 clinical trials analyzed (Tie Y et al., 2016); cited from earlier work
PD-1/PD-L1 = PD-1/PD-L1 (Homo sapiens, UniProt Q9NZQ7); assay: PD-1/PD-L1 biochemical protein-protein interaction assay (ALPHA); assay type: binding; conditions: Table 1a; 5 nM His tagged PD-L1, 5 nM biotinylated PD-1, 2 hours at 25° C.; read-out: ALPHA-LISA IC50
Method: Compounds were tested in protein-protein interaction assay to determine if they can specifically block the interaction between the extracellular domains of PD-1/PD-L1. Binding of the protein pairs is measured using a bead based amplified luminescent proximity homogeneous assay (ALPHA) platform. Binding of each protein pair results in proximity of the donor and acceptor beads which leads to an increase in ALPHA signal. Assays are performed in 50 mM Tris (pH 7.4), 0.0015% Triton X-100, 0.1% BSA. Final protein concentration in the assays were 5 nM (His tagged PD-L1), 5 nM (biotinylated PD-1), 10 μg/ml ALPHA assay acceptor beads, 10 μg/ml ALPHA assay donor beads. After an assay reaction time of 2 hours at 25° C., binding was measured. The specificity of the binding was determined by testing the compounds in an assay with an irrelevant protein that is both His tagged and biotinylated. The final protein concentration used in the assay was 5 nM, 10 μg/ml ALPHA assay acceptor beads, 10 μg/ml ALPHA assay donor beads. After an assay reaction time of 2 hours at 25° C., binding was measured. IC50 values were calculated from the fit of the dose-response curves to a four-parameter equation.

Sequence of PD-1/PD-L1 (Q9NZQ7 19-238 limits assumed): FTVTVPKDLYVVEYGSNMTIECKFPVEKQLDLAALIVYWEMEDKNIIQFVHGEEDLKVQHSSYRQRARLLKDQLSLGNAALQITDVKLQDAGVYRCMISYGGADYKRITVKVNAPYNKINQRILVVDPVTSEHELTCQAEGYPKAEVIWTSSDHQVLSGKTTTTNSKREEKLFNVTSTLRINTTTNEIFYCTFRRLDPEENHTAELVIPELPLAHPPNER

Compound | objective response rate (ORR) [1] [%] | IC50 (PD-1/PD-L1) [nM]
Opdivo: Opdivo® (Nivolumab), given as example of PD-L1/PD-1 antagonist therapy validated in clinical trials | 26 | 
N#Cc1cccc(COc2cc(OCc3cccn(-c4ccc5c(c4)OCCO5)c3=O)c(Cl)cc2CN[C@H](CO)C(=O)O)c1 [Compound 202, (5-chloro-2-((3-cyanobenzyl)oxy)-4-((1-(2,3-dihydrobenzo[b][1,4]dioxin-6-yl)-2-oxo-1,2-dihydropyridin-3-yl)methoxy)benzyl)-D-serine] |  | 200
